# Columns and labels:
# [1] = biological target: N. gonorrhoeae topoisomerase IV ParC^E91G (Neisseria gonorrhoeae, UniProt P48374, E91G); assay: biochemical
# Experimental: (§1) Some experiments replaced MgCl2 with an equivalent concentration of CaCl2 (10 mM), or 1.5 mM ATP was added to assay mixtures.
# (§2) Reactions were incubated at 37 °C for 30 min with WT and mutant (GyrA^D90N, GyrA^A92T, GyrA^S91F, GyrA^D95G, or GyrA^S91F/D95G) N. gonorrhoeae gyrase, 10 min with WT N. gonorrhoeae topoisomerase IV, and 20 min with mutant (ParC^D86N, ParC^S88P, ParC^S87N, or ParC^E91G) N. gonorrhoeae topoisomerase IV. Enzyme-DNA cleavage complexes were trapped by adding 2 μL of 5% SDS followed by 2 μL of 250 mM EDTA (pH 8.0). Proteinase K was added (2 μL of a 0.8 mg/mL solution), and reaction mixtures were incubated at 45 °C for 30 min to digest the enzyme. Samples were mixed with 2 μL of loading buffer and heated at 45 °C for 2 min prior to electrophoresis in 1% agarose gels in 40 mM Tris-acetate (pH 8.3), and 2 mM EDTA containing 0.5 μg/mL ethidium bromide. DNA bands were visualized by midrange ultraviolet light and quantified using an Alpha Innotech digital imaging system (Protein Simple). Single-stranded DNA cleavage was monitored by the conversion of negatively supercoiled to nicked plasmid molecules.
# [2] = biological target: T1, WT N. gonorrhoeae topoisomerase IV (Neisseria gonorrhoeae, UniProt P48374); assay: biochemical
# T1 sequence (P48374 1-768): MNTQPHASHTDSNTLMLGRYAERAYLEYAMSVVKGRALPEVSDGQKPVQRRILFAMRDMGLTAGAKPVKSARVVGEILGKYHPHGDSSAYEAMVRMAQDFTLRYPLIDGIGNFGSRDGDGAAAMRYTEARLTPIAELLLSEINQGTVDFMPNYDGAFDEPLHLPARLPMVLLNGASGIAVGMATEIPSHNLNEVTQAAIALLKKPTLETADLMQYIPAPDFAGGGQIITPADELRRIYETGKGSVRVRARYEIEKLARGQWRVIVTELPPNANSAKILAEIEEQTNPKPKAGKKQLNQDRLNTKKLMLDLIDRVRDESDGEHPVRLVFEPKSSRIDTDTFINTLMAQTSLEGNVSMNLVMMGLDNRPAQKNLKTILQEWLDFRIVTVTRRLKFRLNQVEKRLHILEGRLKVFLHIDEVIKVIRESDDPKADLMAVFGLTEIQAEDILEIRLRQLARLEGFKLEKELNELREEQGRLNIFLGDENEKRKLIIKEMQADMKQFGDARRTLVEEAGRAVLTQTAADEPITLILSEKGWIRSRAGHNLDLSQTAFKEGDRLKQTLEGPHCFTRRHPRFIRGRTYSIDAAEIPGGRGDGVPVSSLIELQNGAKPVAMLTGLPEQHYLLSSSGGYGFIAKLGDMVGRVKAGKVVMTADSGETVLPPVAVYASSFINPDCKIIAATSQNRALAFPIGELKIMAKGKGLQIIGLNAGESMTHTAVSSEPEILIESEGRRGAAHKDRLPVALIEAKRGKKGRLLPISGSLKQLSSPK
# Experimental: as §1, §2
# [3] = test system: N. gonorrhoeae topoisomerase IV ParC^E91G; assay: biochemical; conditions: ParC E91G vs WT
# Experimental: as §1, §2
# [4] = test system: N. gonorrhoeae topoisomerase IV ParC^S87N; assay: biochemical; conditions: ParC S87N vs WT
# Experimental: as §1, §2
# [5] = test system: N. gonorrhoeae topoisomerase IV ParC^S88P; assay: biochemical; conditions: ParC S88P vs WT topoisomerase IV
# Experimental: as §1, §2
# [6] = biological target: N. gonorrhoeae topoisomerase IV ParC^S87N (Neisseria gonorrhoeae, UniProt P48374, S87N); assay: biochemical
# Experimental: as §1, §2
# [7] = biological target: T2, N. gonorrhoeae gyrase GyrA^S91F (Neisseria gonorrhoeae, UniProt P48371, S91F); assay: DNA cleavage assay, GyrA^S91F gyrase; format: biochemical
# T2 construct: His; made in house
# Experimental: as §1, §2
# [8] = test system: N. gonorrhoeae topoisomerase IV ParC^S87N; assay: Topoisomerase IV-catalyzed DNA decatenation assay, ParC^S87N; format: biochemical, Neisseria gonorrhoeae; conditions: ParC S87N vs WT
# Experimental: All proteins were His-tagged. N. gonorrhoeae WT gyrase (GyrA, GyrB) and topoisomerase IV (ParC, ParE) subunits as well as mutant GyrA^D90N, GyrA^A92T, GyrA^S91F, and GyrA^S91F/D95G gyrase and ParC^D86N and ParC^S88P topoisomerase IV were prepared as described previously. , N. gonorrhoeae mutant GyrA^D95G gyrase and mutant ParC^S87N and ParC^E91G topoisomerase IV were generated using a QuickChange II XL site-directed mutagenesis kit (Agilent Technologies) with custom primers for the desired mutations. Mutant N. gonorrhoeae GyrA and ParC subunits were expressed and purified as described by Ashley et al. with the following modifications to optimize protein expression and lysis: (1) GyrA^D95G was expressed for 2.5 h and ParC^S87N and ParC^E91G were expressed for 3 h before harvesting, and (2) cells were lysed by sonication using a digital sonifier (Branson). The identities of all constructs were confirmed by DNA sequencing, and all enzymes were stored at −80 °C. In all assays, N. gonorrhoeae gyrase or topoisomerase IV was used as a 1:1 GyrA:GyrB or ParC:ParE mixture, respectively, and the stated enzyme concentration reflects that of the holoenzyme (A2B2). […]
# T2 sequence (P48371 whole entry S91F): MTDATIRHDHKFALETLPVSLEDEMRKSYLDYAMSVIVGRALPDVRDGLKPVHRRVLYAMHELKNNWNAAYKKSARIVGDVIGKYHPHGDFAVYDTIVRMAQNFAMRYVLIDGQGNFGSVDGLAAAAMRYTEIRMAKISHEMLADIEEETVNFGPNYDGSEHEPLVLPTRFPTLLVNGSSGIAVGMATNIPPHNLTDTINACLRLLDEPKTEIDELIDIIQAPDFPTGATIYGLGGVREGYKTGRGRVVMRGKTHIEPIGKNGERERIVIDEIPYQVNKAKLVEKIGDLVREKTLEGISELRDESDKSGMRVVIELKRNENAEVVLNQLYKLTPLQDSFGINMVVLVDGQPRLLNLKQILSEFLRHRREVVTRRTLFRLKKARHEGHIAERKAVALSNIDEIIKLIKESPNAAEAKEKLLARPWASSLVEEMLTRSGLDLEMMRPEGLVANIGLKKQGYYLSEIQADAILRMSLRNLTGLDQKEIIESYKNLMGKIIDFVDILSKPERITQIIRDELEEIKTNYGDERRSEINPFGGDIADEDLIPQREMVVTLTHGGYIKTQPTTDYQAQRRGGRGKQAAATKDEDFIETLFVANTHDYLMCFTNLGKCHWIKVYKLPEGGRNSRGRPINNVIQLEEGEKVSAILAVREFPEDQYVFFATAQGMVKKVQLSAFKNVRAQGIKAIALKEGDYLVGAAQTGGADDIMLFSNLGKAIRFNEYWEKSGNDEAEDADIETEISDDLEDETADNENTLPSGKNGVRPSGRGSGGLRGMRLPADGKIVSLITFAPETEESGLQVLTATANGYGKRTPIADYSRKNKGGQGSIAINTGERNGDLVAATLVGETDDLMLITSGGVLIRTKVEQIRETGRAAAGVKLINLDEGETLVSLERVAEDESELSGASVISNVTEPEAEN
# T2 sequence (P22118 whole entry partner): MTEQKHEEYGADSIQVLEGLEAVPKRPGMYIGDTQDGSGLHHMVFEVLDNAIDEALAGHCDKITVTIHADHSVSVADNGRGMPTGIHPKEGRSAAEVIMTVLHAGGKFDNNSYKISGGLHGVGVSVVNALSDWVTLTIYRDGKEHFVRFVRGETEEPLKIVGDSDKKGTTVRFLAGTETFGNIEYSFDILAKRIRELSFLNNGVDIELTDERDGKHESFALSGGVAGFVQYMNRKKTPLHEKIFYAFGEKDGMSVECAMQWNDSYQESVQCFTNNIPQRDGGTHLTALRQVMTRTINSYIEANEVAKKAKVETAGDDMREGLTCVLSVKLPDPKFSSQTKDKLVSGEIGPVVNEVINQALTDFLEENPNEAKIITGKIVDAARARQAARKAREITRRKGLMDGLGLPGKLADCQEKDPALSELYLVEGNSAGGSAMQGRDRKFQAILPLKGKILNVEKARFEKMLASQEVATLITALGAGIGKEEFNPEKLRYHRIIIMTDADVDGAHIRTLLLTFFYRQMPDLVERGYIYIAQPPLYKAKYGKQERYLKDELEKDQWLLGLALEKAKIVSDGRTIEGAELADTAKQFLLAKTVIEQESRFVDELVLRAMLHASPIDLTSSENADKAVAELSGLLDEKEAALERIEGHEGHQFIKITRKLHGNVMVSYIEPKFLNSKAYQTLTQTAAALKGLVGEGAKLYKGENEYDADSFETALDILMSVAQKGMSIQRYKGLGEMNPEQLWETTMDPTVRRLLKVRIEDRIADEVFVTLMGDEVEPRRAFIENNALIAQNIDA
# Sequence of N. gonorrhoeae topoisomerase IV ParC^S87N (Neisseria gonorrhoeae, UniProt P48374, S87N) (P48374 whole entry S87N): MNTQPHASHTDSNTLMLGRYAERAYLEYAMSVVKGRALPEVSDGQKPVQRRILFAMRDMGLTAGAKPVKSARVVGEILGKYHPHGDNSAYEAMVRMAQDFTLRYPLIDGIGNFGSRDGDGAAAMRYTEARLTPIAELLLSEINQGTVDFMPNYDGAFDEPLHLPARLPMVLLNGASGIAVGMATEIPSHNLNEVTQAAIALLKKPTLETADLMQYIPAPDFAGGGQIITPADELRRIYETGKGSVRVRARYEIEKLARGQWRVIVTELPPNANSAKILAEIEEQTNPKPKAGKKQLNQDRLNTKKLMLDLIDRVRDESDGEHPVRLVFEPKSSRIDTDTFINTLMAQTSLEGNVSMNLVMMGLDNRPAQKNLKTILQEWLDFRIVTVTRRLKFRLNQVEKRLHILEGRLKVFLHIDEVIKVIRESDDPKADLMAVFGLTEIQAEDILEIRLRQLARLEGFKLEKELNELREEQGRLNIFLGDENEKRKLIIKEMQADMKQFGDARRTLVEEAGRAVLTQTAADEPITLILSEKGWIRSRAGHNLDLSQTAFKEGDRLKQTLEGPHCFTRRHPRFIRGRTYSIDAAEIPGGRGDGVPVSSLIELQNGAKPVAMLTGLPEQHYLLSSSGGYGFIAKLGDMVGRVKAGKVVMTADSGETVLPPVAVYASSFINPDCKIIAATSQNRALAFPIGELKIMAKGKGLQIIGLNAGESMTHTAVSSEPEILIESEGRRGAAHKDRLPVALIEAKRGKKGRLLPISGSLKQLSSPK
# Sequence of N. gonorrhoeae topoisomerase IV ParC^E91G (Neisseria gonorrhoeae, UniProt P48374, E91G) (P48374 whole entry E91G): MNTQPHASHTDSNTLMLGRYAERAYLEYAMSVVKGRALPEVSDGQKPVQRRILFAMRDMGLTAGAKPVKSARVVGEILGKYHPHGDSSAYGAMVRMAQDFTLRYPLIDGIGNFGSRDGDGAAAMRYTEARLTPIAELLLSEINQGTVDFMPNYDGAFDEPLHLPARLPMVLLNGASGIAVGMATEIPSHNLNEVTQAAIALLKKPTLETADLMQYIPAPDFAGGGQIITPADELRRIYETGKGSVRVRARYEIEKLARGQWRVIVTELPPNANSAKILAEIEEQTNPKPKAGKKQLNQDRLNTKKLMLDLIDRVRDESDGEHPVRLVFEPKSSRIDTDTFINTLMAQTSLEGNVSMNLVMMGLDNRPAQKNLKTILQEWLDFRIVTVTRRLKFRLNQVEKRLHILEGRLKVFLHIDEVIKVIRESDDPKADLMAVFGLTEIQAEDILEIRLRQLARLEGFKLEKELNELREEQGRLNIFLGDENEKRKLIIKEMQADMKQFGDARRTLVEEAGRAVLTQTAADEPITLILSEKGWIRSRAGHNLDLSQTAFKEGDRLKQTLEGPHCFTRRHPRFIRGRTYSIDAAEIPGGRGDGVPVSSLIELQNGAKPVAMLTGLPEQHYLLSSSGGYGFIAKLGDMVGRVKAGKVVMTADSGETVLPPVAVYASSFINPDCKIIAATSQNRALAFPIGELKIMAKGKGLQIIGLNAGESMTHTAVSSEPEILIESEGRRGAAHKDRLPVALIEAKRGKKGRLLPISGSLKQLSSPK
smiles,measurement,setting,value
O=c1ccc2ncc(=O)n3c2n1C[C@H]3CN1CCC(NCc2cc3c(cn2)OCCC3)CC1 [gepotidacin],EC50,[1],200 nM
same,EC50,[2],600 ± 200 nM
same,effect of ATP on potency and maximal DNA cleavage,"[2]; WT topoisomerase IV, 1.5 mM ATP",little effect
same,effect on double-stranded DNA breaks,"[2]; WT topoisomerase IV, Mg2+ replaced with Ca2+",clear suppression
same,"Adj-Max Cleavage, single-stranded DNA breaks","[2]; WT topoisomerase IV, adjusted for baseline cleavage",~42.8%
same,additional enhancement of double-stranded DNA breaks above baseline,"[2]; WT topoisomerase IV, up to 200 μM gepotidacin, up to 180 min",not observed
same,fold decrease of Adj-Max Cleavage vs WT,[3],~3.2 fold
same,fold decrease of Adj-Max Cleavage vs WT,[4],~4.2 fold
same,more single-stranded DNA cleavage with mutant enzyme compared to WT,[5],~40%
same,EC50,[6],600 nM
same,"Adj-Max Cleavage, single-stranded DNA breaks",[7],5.5%
same,EC50,"[7]; GyrA S91F gyrase, read-out: CC50, single-stranded DNA cleavage",17.2 µM
same,fold decrease of adjusted maximal DNA cleavage vs WT,[7]; GyrA S91F vs WT,~3.1 fold
same,fold lower decatenation IC50 vs WT topoisomerase IV,[8],~2.3 fold

# Reference: publication PMC12624743 (ACS Infectious Diseases, 2025)
